Assay results published in US9328106B2, “Cyclic ether pyrazol-4-yl-heterocyclyl-carboxamide compounds and methods of use” (Genentech, Inc., priority 2012, dated 2016).
pEC50, pIC50, pKi: −log10 of the molar value.

Experiments:
PIM1 = PIM1 (Homo sapiens (Human), UniProt P11309); assay: biochemical; assay type: biochemical; details: 20 pM PIM1, 1 μM FAM-peptide, 10 μM ATP, 90 minutes at room temperature; read-out: PIM1 LC3K (KI)
Method: Reaction Buffer contained 10 mM HEPES, pH 7.2, 10 mM MgCl2, 0.01% Tween 20, 2 mM DTT. Termination Buffer contained 190 mM HEPES, pH 7.2, 0.015% Brij-35, 0.2% Coating Reagent 3 (Caliper Life Sciences, Hopkinton, Mass.), 20 mM EDTA. Separation Buffer contained 100 mM HEPES, pH 7.2, 0.015% Brij-35, 0.1% Coating Reagent 3, 1:200 Coating Reagent 8 (Caliper Life Sciences, Hopkinton, Mass.), 10 mM EDTA and 5% DMSO.
PIM reactions were carried out in a final volume of 10 μL per well in a 384-well plate. […] After 90 minutes of incubation at room temperature, the phosphorylation reaction was stopped by the addition of 10 μL Termination Buffer. The product and substrate in each independent reaction were separated on a 12-sipper microfluidic chip (Caliper Life Sciences, Hopkinton, Mass.) run on a Caliper LC3000® (Caliper Life Sciences, Hopkinton, Mass.). The separation of product and substrate was optimized by choosing voltages and pressure using Caliper's Optimizer software (Hopkinton, Mass.). The separation conditions used a downstream voltage of −500V, an upstream voltage of −2150V, and a screening pressure of −1.2 psi. […] Substrate conversion was calculated from the electropherogram using HTS Well Analyzer software (Caliper Life Sciences, Hopkinton, Mass.). Ki values for the test compound were calculated.

[1] = tested on: MM1.S (multiple myeloma) cells; assay: In vitro cell proliferation, MM1.S multiple myeloma cells; assay type: cell-based; details: Homo sapiens, MM1.S, 72 h, MM1.S cells, 72 hours, CELL TITER GLO; read-out: Prolif MM1S ATP (EC50);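 note: cells cultured in RPMI with 10% FBS and 2 mM L-Glutamine, seeded in 384-well plates, exposed to compound, cell viability measured by luminescence after CellTiter-Glo addition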
Method: (§1) BaF3 parental line was obtained from the DSMZ repository. […] Media for BaF3 parental line contained RPMI, 10% FBS, 2 mM L-Glutamine, 2 ng/mL mIL-3. Media for BaF3 PIM1 & 2 lines contained RPMI, 10% FBS, 2 mM L-Glutamine, 250 μg/mL. Media for MM1.S (multiple myeloma cells) line contained RPMI, 10% FBS, 2 mM L-Glutamine.
(§2) BaF3, a murine interleukin-3 dependent pro-B cell line, parental cells, BaF3 PIM1 cells, BaF3 PIM2 cells, and MM1.S (multiple myeloma) cells were seeded at 2 k/well, 5 k/well, 5 k/well, and 10 k/well respectively, in a 384-well plate, at 45 μL/well. Test compound was added at 5 μL/well. BaF3 cells (parental and transfected) were incubated overnight, while MM1.S cells were incubated for 72 hours at 37° C., 5% CO2. CELL TITER GLO® Reagent (Promega) was added at 50 μL/well, the plates were incubated for 30 minutes, and their luminescence read on an HT Analyst. IC50/EC50 values for the test compound were calculated.

BaF3 PIM1 cells = assay: In vitro cell proliferation, BaF3 transfected with PIM1; assay type: cell-based, murine; details: Mus musculus, BaF3, read-out: Prolif BaF3 PIM1 (IC50), BaF3 PIM1 cells, incubated overnight, CELL TITER GLO;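 note: murine IL-3-dependent pro-B BaF3 cells transfected with PIM1, compound exposure overnight at 37 °C under 5% CO2, viability read as luminescence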
Method: as §1, §2

BaF3 parental cells = assay: In vitro cell proliferation, BaF3 parental line + IL3; assay type: cell-based, murine; details: Mus musculus, BaF3, BaF3 parental, mIL-3, incubated overnight, CELL TITER GLO; read-out: Prolif BaF3 IL3 (IC50);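 note: BaF3 parental cells are murine IL-3 dependent pro-B cells grown with 2 ng/mL mIL-3, 384-well format, viability read by luminescence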

Chain of PIM1 (P11309 whole entry): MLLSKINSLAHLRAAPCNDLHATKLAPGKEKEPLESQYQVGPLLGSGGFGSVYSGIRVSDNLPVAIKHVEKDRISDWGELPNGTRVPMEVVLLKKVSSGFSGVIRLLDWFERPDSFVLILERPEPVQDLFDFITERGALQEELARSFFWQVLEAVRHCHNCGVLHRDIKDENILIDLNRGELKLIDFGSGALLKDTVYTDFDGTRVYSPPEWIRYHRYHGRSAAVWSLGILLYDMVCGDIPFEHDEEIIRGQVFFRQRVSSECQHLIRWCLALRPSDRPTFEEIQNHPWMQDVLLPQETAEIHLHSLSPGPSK

SMILES | pKi (PIM1) | pEC50 [1] | pIC50 (BaF3 PIM1 cells) | pIC50 (BaF3 parental cells)
Cn1ncc(NC(=O)c2csc(-c3c(F)ccc(S(C)(=O)=O)c3F)n2)c1[C@@H]1CC[C@@H](N)[C@H](F)CO1 [Example 360, N-[5-[(2S,5R,6S)-5-amino-6-fluoro-oxepan-2-yl]-1-methyl-pyrazol-4-yl]-2-(2,6-difluoro-3-methylsulfonyl-phenyl)thiazole-4-carboxamide] | 8.73 | 5.03 | 4.82 | 4.78
Cc1cccc(-c2nc(C(=O)Nc3cnn(C)c3[C@@H]3CC[C@@H](N)[C@H](F)CO3)cs2)c1F [Example 361, N-[5-[(2S,5R,6S)-5-amino-6-fluoro-oxepan-2-yl]-1-methyl-pyrazol-4-yl]-2-(2-fluoro-3-methyl-phenyl)thiazole-4-carboxamide] | 10.17 | 6.34 | 6.60 | 5.55
COc1cccc(-c2nc(C(=O)Nc3cnn(C)c3[C@@H]3CC[C@@H](N)[C@H](F)CO3)cs2)c1F [Example 362, N-(5-((2S,5R,6S)-5-amino-6-fluorooxepan-2-yl)-1-methyl-1H-pyrazol-4-yl)-2-(2-fluoro-3-methoxyphenyl)thiazole-4-carboxamide] | 10.44 | 6.47 | 7.29 | 5.51
Cn1ncc(NC(=O)c2csc(-c3c(F)cc(F)cc3F)n2)c1[C@@H]1CC[C@@H](N)[C@H](F)CO1 [Example 364, N-(5-((2S,5R,6S)-5-amino-6-fluorooxepan-2-yl)-1-methyl-1H-pyrazol-4-yl)-2-(2,4,6-trifluorophenyl)thiazole-4-carboxamide] | 10.41 | 5.96 | 6.68 | 4.69
CC(C)C(=O)c1cc(F)c(-c2nc(C(=O)Nc3cnn(C)c3[C@@H]3CC[C@@H](N)[C@H](F)CO3)cs2)c(F)c1 [Example 367, N-(5-((2S,5R,6S)-5-amino-6-fluorooxepan-2-yl)-1-methyl-1H-pyrazol-4-yl)-2-(2,6-difluoro-4-isobutyrylphenyl)thiazole-4-carboxamide] | 10.21 | 5.27 | 6.61 | 4.62
Cc1sc(-c2c(F)cccc2F)nc1C(=O)Nc1cnn(C)c1[C@@H]1CC[C@@H](N)[C@H](F)CO1 [Example 370, N-[5-[(2S,5R,6S)-5-amino-6-fluoro-oxepan-2-yl]-1-methyl-pyrazol-4-yl]-2-(2,6-difluorophenyl)-5-methyl-thiazole-4-carboxamide] | 9.42 | 5.74 | 6.17 | 5.19
Cc1[nH]nc(-c2nc(C(=O)Nc3cnn(C)c3[C@@H]3CC[C@@H](N)[C@H](F)CO3)cs2)c1C [Example 372, N-(5-((2S,5R,6S)-5-amino-6-fluorooxepan-2-yl)-1-methyl-1H-pyrazol-4-yl)-2-(4,5-dimethyl-1H-pyrazol-3-yl)thiazole-4-carboxamide] | 10.19 | 5.80 | 6.22 | 4.69
Cn1ncc(NC(=O)c2csc(-c3cc[nH]n3)n2)c1[C@@H]1CC[C@@H](N)[C@H](F)CO1 [Example 379, N-[5-[(2S,5R,6S)-5-amino-6-fluoro-oxepan-2-yl]-1-methyl-pyrazol-4-yl]-2-(1H-pyrazol-3-yl)thiazole-4-carboxamide] | 9.89 | 5.54 | 6.01 | < 4.60
Cn1ncc(NC(=O)c2csc(-c3cccnc3)n2)c1[C@@H]1CC[C@@H](N)[C@H](F)CO1 [Example 383, N-[5-[(2S,5R,6S)-5-amino-6-fluoro-oxepan-2-yl]-1-methyl-pyrazol-4-yl]-2-(3-pyridyl)thiazole-4-carboxamide] | 9.00 | 5.24 | 6.08 | 4.68
CC(C)Oc1ncccc1-c1nc(C(=O)Nc2cnn(C)c2[C@@H]2CC[C@@H](N)[C@H](F)CO2)cs1 [Example 384, N-[5-[(2S,5R,6S)-5-amino-6-fluoro-oxepan-2-yl]-1-methyl-pyrazol-4-yl]-2-(2-isopropoxy-3-pyridyl)thiazole-4-carboxamide] | 8.01 | 5.36 | 5.25 | 5.14
CN(C)c1ccc(-c2nc(C(=O)Nc3cnn(C)c3[C@@H]3CC[C@@H](N)[C@H](F)CO3)cs2)cn1 [Example 385, N-[5-[(2S,5R,6S)-5-amino-6-fluoro-oxepan-2-yl]-1-methyl-pyrazol-4-yl]-2-[6-(dimethylamino)-3-pyridyl]thiazole-4-carboxamide] | 9.70 | 5.92 | 6.93 | 4.92

Now those with a higher pKi (PIM1), led by results:

pKi (PIM1) | pEC50 [1] | pIC50 (BaF3 PIM1 cells) | SMILES | pIC50 (BaF3 parental cells)
11.15 | 5.24 | 6.58 | Cn1ncc(NC(=O)c2ccc(F)c(-c3ccc(Cl)cc3F)n2)c1[C@@H]1CC[C@@H](N)[C@H](F)CO1 [Example 359, N-(5-((2S,5R,6S)-5-amino-6-fluorooxepan-2-yl)-1-methyl-1H-pyrazol-4-yl)-6-(4-chloro-2-fluorophenyl)-5-fluoropicolinamide] | 4.94
10.47 | 6.03 | 6.53 | Cn1ncc(NC(=O)c2csc(-c3c(F)ccc(C4CC4)c3F)n2)c1[C@@H]1CC[C@@H](N)[C@H](F)CO1 [Example 363, N-(5-((2S,5R,6S)-5-amino-6-fluorooxepan-2-yl)-1-methyl-1H-pyrazol-4-yl)-2-(3-cyclopropyl-2,6-difluorophenyl)thiazole-4-carboxamide] | 5.35
10.52 | 5.62 | 7.00 | COc1ccc(F)c(-c2nc(C(=O)Nc3cnn(C)c3[C@@H]3CC[C@@H](N)[C@H](OC)CO3)cs2)c1F [Example 368, N-(5-((2S,5R,6S)-5-amino-6-methoxyoxepan-2-yl)-1-methyl-1H-pyrazol-4-yl)-2-(2,6-difluoro-3-methoxyphenyl)thiazole-4-carboxamide] | 5.72
11.05 | 5.47 | 7.00 | Cn1ncc(NC(=O)c2csc(-c3n[nH]c4c3CCC(C)(C)C4)n2)c1[C@@H]1CC[C@@H](N)[C@H](F)CO1 [Example 373, N-(5-((2S,5R,6S)-5-amino-6-fluorooxepan-2-yl)-1-methyl-1H-pyrazol-4-yl)-2-(6,6-dimethyl-4,5,6,7-tetrahydro-1H-indazol-3-yl)thiazole-4-carboxamide] | 5.07
10.51 | 5.38 | 7.16 | Cn1ncc(NC(=O)c2csc(-c3c(F)ccc(C(F)F)c3F)n2)c1[C@@H]1CC[C@@H](N)[C@H](F)CO1 [Example 377, N-[5-[(2S,5R,6S)-5-amino-6-fluoro-oxepan-2-yl]-1-methyl-pyrazol-4-yl]-2-[3-(difluoromethyl)-2,6-difluoro-phenyl]thiazole-4-carboxamide] | 5.00
10.66 | 6.19 | 7.10 | Cn1ncc(NC(=O)c2csc(-c3n[nH]c4ccccc34)n2)c1[C@@H]1CC[C@@H](N)[C@H](F)CO1 [Example 381, N-(5-((2S,5R,6S)-5-amino-6-fluorooxepan-2-yl)-1-methyl-1H-pyrazol-4-yl)-2-(1H-indazol-3-yl)thiazole-4-carboxamide] | 5.24
